Source: patent publication US8822500B2, “Tyrosine kinase inhibitors” (Chembridge Corporation, priority 2008, dated 2014)
Like-named read-outs stand apart in the source and are kept apart here. Values belong to the compound of their own block, whether it stands above or below them.

Columns and labels:
[1] = biological target: ALK (Homo sapiens (Human), UniProt Q9UM73); assay: In vitro kinase activity assay (LANCE TR-FRET); format: biochemical;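 note: kinase reactions with ATP and a poly-GT peptide substrate, phosphorylated product read by time-resolved FRET, 11-point curve from 10^−11 to 10^−5 M, DMSO as negative control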
[2] = biological target: IGF1R (Homo sapiens (Human), UniProt P08069); assay: In vitro kinase activity assay (LANCE TR-FRET); format: biochemical
[3] = biological target: INSR (Homo sapiens (Human), UniProt P06213); assay: In vitro kinase activity assay (LANCE TR-FRET); format: biochemical
[4] = biological target: TrkA (Homo sapiens (Human), UniProt P04629); assay: In vitro kinase activity assay (LANCE TR-FRET); format: biochemical;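 note: kinase reaction with poly-GT peptide substrate and ATP, phosphorylated product quantified by time-resolved FRET, eleven-point dose curves from 10^−11 to 10^−5 M in triplicate, DMSO as negative control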
[5] = system: K299 lymphoma cells; assay: Cellular assay, 3 day cell viability (WST-1); format: cell-based; details: 72 h, 3 days
[6] = system: U937 lymphoma cells; assay: Cellular assay, 3 day cell viability (WST-1); format: cell-based; details: Homo sapiens, U-937, 72 h, 3 days, WST-1
[7] = Metabolic stability, Phase I microsome reactions; format: in vitro ADME, mouse; details: mouse, liver microsomes, pH 7.4, Phase I only, 1.0 mg/ml microsomes, read-out: Mouse LM-P1 Half-life
[8] = in vitro; details: human, microsomes
[9] = in vitro; details: rat, microsomes
[10] = biological target: ALK (WT) (Homo sapiens (Human), UniProt Q9UM73); assay: Cell free kinase assay (Carna Biosciences kinases); format: biochemical
[11] = system: EML4-ALK BaF3 cells; assay: BaF3 stables cell viability (WST-1)
[12] = biological target: TrkB (Homo sapiens (Human), UniProt Q16620); assay: In vitro kinase activity assay (LANCE TR-FRET); format: biochemical; details: read-out: GTx-TrKB IC50
[13] = biological target: TrkC (Homo sapiens (Human), UniProt Q16288); assay: In vitro kinase activity assay (LANCE TR-FRET); format: biochemical; details: read-out: GTx-TrKC IC50
[14] = system: SUDHL-1 lymphoma cells; assay: Cellular assay, 3 day cell viability (WST-1); format: cell-based; details: Homo sapiens, SU-DHL-1, 72 h, 3 days, WST-1
[15] = biological target: ROS (Homo sapiens (Human), UniProt P08922); assay: In vitro kinase activity assay (LANCE TR-FRET); format: biochemical; details: read-out: ROS (nM) IC50
[16] = biological target: RET (Homo sapiens (Human), UniProt P07949); assay: In vitro kinase activity assay (LANCE TR-FRET); format: biochemical; details: read-out: RET (nM) IC50
[17] = biological target: cMET (Homo sapiens (Human), UniProt P08581); assay: In vitro kinase activity assay (LANCE TR-FRET); format: biochemical
[18] = system: NB-1 neuroblastoma cells; assay: Cellular assay, 3 day cell viability (WST-1); format: cell-based; details: 72 h, 3 days, WST-1, read-out: NB-1 IC50
[19] = Caco-2 cell permeation study; format: in vitro ADME; details: human;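 note: Caco-2 monolayers grown for 21–28 days with integrity confirmed by TEER, apical buffer HBSS with MES, basolateral buffer HBSS with HEPES, compound levels quantified by LC/MS/MS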
[20] = biological target: T1, hERG (human ether-a-go-go related gene) potassium channel (Homo sapiens (Human), UniProt Q12809); assay: hERG potassium channel current, automated patch clamp (PatchXpress 7000A);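 note: Four-point series of 0.3, 3, 10 and 30 µM, two cells recorded per concentration, 5 min exposure at each level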
[21] = biological target: T1, hERG (human ether-a-go-go related gene) potassium channel; details: 5 min
[22] = biological target: hERG potassium channel (Homo sapiens (Human), UniProt Q12809); assay: in vitro
[23] = microsomes, 0.5 μM, pH 7.4
[24] = system: EML4-ALK C1156Y BaF3 cells; assay: BaF3 stables cell viability (WST-1); details: read-out: BaF3 Stables IC50 nM C1156Y; EML4-ALK construct
[25] = system: EML4-ALK R1275Q BaF3 cells; assay: BaF3 stables cell viability (WST-1); details: read-out: BaF3 Stables IC50 nM R1275Q; EML4-ALK construct
[26] = Individual Data Points (% Inhibition)

Chain of TrkA (P04629 33-796): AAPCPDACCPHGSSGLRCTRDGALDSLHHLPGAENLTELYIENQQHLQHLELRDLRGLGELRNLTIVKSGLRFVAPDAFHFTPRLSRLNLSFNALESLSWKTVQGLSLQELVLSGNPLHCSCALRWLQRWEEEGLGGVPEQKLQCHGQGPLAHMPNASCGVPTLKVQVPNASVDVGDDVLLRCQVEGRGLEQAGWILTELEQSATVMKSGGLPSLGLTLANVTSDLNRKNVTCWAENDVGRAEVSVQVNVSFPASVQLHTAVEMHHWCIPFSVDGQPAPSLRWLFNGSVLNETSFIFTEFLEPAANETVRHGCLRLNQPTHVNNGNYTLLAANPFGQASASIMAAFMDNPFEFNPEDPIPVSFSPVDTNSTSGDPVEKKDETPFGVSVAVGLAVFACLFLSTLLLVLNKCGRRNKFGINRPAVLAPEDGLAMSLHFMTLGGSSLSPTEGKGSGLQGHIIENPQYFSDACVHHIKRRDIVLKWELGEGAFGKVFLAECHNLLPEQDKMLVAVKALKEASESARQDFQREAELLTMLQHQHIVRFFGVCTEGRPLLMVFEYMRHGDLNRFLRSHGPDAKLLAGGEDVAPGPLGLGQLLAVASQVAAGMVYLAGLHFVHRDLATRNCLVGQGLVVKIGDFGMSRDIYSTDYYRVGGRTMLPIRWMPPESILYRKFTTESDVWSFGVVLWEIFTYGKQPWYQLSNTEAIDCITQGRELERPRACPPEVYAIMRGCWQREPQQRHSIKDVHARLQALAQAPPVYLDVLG
Chain of ALK (Q9UM73 19-1620): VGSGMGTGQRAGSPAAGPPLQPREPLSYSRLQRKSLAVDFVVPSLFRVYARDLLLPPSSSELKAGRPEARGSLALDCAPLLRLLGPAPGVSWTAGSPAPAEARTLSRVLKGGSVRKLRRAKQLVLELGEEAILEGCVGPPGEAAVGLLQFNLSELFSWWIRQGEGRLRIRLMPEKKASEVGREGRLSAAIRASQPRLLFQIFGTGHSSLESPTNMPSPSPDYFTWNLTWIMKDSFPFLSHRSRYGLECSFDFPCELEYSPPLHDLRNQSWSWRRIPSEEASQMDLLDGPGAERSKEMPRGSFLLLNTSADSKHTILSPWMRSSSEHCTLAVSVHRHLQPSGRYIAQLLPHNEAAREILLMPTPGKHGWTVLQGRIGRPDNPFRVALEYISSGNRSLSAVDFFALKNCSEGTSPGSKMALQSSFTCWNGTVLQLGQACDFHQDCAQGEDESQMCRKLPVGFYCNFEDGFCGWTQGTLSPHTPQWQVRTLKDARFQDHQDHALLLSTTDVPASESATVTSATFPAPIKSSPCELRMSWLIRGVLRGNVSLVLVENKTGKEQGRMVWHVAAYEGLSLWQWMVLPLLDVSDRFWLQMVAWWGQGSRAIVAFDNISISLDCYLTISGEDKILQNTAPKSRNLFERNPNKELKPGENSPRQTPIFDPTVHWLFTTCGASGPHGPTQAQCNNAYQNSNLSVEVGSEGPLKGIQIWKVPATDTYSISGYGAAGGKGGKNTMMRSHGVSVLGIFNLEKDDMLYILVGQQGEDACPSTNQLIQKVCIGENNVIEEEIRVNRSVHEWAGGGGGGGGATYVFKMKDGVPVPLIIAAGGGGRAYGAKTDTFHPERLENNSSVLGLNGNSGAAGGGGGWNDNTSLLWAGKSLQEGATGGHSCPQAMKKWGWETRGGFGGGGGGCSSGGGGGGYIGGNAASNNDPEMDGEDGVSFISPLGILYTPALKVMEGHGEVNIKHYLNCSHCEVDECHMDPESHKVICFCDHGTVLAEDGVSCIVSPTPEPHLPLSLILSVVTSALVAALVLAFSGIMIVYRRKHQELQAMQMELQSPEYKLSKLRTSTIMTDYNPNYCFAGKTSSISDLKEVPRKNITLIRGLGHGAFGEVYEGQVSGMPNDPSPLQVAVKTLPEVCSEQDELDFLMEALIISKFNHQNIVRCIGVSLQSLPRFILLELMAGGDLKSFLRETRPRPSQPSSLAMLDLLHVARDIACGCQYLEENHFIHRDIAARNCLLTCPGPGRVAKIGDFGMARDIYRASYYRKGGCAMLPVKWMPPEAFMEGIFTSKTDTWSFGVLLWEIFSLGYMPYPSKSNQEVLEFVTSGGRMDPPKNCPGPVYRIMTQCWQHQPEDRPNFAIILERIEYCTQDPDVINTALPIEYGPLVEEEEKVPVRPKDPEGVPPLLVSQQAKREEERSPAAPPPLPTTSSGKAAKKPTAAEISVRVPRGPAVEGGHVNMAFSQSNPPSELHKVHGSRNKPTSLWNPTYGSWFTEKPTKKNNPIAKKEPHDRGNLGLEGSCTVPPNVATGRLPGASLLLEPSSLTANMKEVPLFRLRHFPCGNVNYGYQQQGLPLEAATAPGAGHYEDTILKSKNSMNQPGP
T1 sequence (Q12809 whole entry): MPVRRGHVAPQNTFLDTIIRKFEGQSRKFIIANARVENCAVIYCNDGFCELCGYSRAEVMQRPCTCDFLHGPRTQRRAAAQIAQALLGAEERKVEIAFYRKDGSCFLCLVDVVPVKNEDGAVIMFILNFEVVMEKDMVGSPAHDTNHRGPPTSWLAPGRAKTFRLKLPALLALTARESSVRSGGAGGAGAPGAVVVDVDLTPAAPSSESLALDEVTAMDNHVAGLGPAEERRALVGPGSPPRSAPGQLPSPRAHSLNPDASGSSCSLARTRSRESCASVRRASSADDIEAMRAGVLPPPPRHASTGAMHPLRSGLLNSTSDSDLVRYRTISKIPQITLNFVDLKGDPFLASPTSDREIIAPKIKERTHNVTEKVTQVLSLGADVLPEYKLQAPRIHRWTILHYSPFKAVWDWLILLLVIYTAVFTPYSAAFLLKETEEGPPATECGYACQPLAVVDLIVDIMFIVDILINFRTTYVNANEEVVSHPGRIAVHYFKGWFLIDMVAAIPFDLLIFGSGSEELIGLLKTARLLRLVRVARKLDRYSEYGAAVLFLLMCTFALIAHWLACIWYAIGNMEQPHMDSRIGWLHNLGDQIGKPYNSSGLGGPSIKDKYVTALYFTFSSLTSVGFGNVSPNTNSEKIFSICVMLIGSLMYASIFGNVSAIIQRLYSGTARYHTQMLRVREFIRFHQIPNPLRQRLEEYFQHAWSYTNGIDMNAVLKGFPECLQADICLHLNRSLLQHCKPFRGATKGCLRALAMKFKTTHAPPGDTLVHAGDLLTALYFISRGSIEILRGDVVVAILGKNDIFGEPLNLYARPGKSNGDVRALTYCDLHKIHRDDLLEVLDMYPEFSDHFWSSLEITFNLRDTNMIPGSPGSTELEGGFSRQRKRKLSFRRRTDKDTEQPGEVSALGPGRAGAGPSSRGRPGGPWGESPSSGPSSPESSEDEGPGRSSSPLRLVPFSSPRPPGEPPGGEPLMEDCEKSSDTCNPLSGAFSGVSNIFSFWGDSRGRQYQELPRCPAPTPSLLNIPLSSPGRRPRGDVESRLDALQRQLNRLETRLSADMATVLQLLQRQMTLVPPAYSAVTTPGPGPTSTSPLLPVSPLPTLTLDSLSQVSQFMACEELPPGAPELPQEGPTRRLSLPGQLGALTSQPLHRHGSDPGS
Chain of hERG potassium channel (Q12809 whole entry): as above

Compound: C[C@@H](Cc1c(F)c(F)cc(F)c1F)Nc1cc[nH]c(=O)c1-c1nc2cc3c(cc2[nH]1)CN(CCN(C)C)C3=O (single isomer, unassigned) [Compound 1 R isomer]
cell free activity (in words) [10]: inactive
IC50 ([11]; Mus musculus, BaF3, read-out: BaF3 Stables IC50 nM EML4-ALK): 1060 nM

Compound: C[C@@H](Cc1c(F)c(F)cc(F)c1F)Nc1cc[nH]c(=O)c1-c1nc2cc3c(cc2[nH]1)CN(CCN1CCCC1)C3=O [Compound 3]
Individual Data Points (% Inhibition) ([21]; 0.3 µM): 11.2%
Individual Data Points (% Inhibition) ([21]; 3 µM): 49.7%
Individual Data Points (% Inhibition) ([21]; 10 µM): 70.8%
Individual Data Points (% Inhibition) ([21]; 30 µM): 81.7%
inhibition at 5 min, 0.3 µM [22, 26]: 13.2%
inhibition at 5 min, 3 µM [22, 26]: 49.1%
inhibition at 5 min, 10 µM [22, 26]: 75.7%
inhibition at 5 min, 30 µM [22, 26]: 87.2%
inhibition at 5 min, 0.3 µM ([22]; Mean % hERG Inhibition): 12.2%
inhibition at 5 min, 3 µM ([22]; Mean % hERG Inhibition): 49.4%
inhibition at 5 min, 10 µM ([22]; Mean % hERG Inhibition): 73.3%
inhibition at 5 min, 30 µM ([22]; Mean % hERG Inhibition): 84.4%
IC50 [20]: 3170 nM

Compound: COc1cc([C@@H]2c3cc4c(cc3[C@H](O)[C@H]3COC(=O)[C@@H]23)OCO4)cc(OC)c1OC (racemic) [PPP, reference compound]
IC50 ([1]; read-out: ALK IC50): > 10000 nM
IC50 ([1]; read-out: GTx-ALK IC50): > 10000 nM
IC50 ([3]; read-out: GTx-IRK IC50): > 10000 nM
IC50 ([5]; read-out: GTx-K299 IC50): 196 nM
IC50 ([5]; read-out: K299 IC50): 196 nM
IC50 ([6]; read-out: GTx-U937 IC50): 138 nM
IC50 ([6]; read-out: U937 IC50): 138 nM

Further lines, with some results ahead:

IC50 ([1]; read-out: ALK IC50): 1 nM
IC50 [2]: 299 nM
IC50 ([3]; read-out: IRK IC50): 578 nM
IC50 ([4]; read-out: TrKA IC50): 4 nM
IC50 ([5]; read-out: K299 IC50): 154 nM
IC50 ([6]; read-out: U937 IC50): 2200 nM
half-life at 0.5 μM [7]: 29 min
microsomal CLint at 0.5 μM ([8]; pH 7.4, Human LM-P1 CL (ul/min/mg)): < 5.8 µL/min/mg
half-life at 0.5 μM ([8]; pH 7.4, Human LM-P1 Half-life (min)): > 120 min
half-life at 0.5 μM ([9]; pH 7.4): 8.7 min
microsomal CLint at 0.5 μM ([9]; pH 7.4, Rat LM-P1 CL (ul/min/mg)): 79.9 µL/min/mg
Compound: C[C@@H](Cc1cc(F)cc(F)c1F)Nc1cc[nH]c(=O)c1-c1nc2cc3c(cc2[nH]1)CN(CCN(C)C)C3=O [Compound 31]

IC50 ([1]; read-out: GTx-ALK IC50): 37 nM
IC50 ([4]; read-out: GTx-TrKA IC50): 4 nM
IC50 [12]: 4 nM
IC50 [13]: 1 nM
IC50 ([5]; read-out: GTx-K299 IC50): 798 nM
IC50 ([6]; read-out: GTx-U937 IC50): > 3000 nM
IC50 ([14]; read-out: GTx-SUDHL-1 IC50): 829 nM
Compound: Cc1ccc(F)cc1CC(C)Nc1cc[nH]c(=O)c1-c1nc2cc3c(cc2[nH]1)CN(C)C3=O (centres unmarked) [Compound 44, 2-(4-(1-(5-Fluoro-2-methylphenyl)propan-2-ylamino)-2-oxo-1,2-dihydropyridin-3-yl)-6-methyl-6,7-dihydroimidazo[4,5-f]isoindol-5(1H)-one]

IC50 ([1]; read-out: ALK (nM) IC50): 14 nM
IC50 ([1]; read-out: ALK IC50): 14 nM
IC50 ([4]; read-out: TrKA IC50): 12 nM
IC50 ([4]; read-out: TrkA (nM) IC50): 12.2 nM
IC50 [15]: 0.436 nM
IC50 [16]: 25.8 nM
IC50 [17]: 14 nM
IC50 ([5]; read-out: K299 IC50): 1920 nM
IC50 ([6]; read-out: U937 IC50): > 10000 nM
IC50 ([14]; read-out: SUDHL-1 IC50): 2740 nM
IC50 [18]: 666 nM
efflux ratio at 2 h, 10 μM ([19]; Caco-2, Caco-2): > 17.8
Papp A→B at 2 h, 10 μM ([19]; Caco-2, pH 6.5, 10 μM, apical pH 6.5, 2 h): < 0.2 ×10⁻⁶ cm/s
Papp B→A at 2 h, 10 μM ([19]; Caco-2, pH 7.4, 10 μM, basolateral pH 7.4, 2 h): 3.6 ×10⁻⁶ cm/s
Compound: C[C@@H](Cc1c(F)c(F)cc(F)c1F)Nc1cc[nH]c(=O)c1-c1nc2cc3c(cc2[nH]1)C(=O)N(CCN(C)C)C3=O [Compound 2, (S)-6-(2-(Dimethylamino)ethyl)-2-(2-oxo-4-((1-(2,3,5,6-tetrafluorophenyl)propan-2-yl)amino)-1,2-dihydropyridin-3-yl)imidazo[4,5-f]isoindole-5,7(1H,6H)-dione]
IC50 [20]: > 30000 nM

IC50 ([1]; read-out: ALK (nM) IC50): 9.81 nM
IC50 ([1]; read-out: GTx-ALK IC50): 10 nM
IC50 ([4]; read-out: TrkA (nM) IC50): 5 nM
Rat LM-P1 Half-life [23]: >120 min
IC50 ([11]; read-out: BaF3 Stables IC50 nM EML4-ALK, EML4-ALK parent construct): 143 ± 6 nM
IC50 [24]: 283 ± 43 nM
IC50 [25]: 288 ± 20 nM
Compound: (S)-6-(1-Methylpiperidin-4-yl)-2-(2-oxo-4-(1-(2,3,5,6-tetrafluorophenyl)propan-2-ylamino)-1,2-dihydropyridin-3-yl)-6,7-dihydroimidazo[4,5-f]isoindol-5(3H)-one [Compound 4]
